Test results: the NIST ThermoML archive (doi:10.1021/acs.jced.6b00021)
Where “and” joins values, the source holds several entries; their conditions need not be identical. Identical values can stand only once.

Conditions: Liquid; for electrical conductivity / viscosity / self diffusion coefficient: 101.33 kPa; for electrical conductivity: Alternating current cell with electrodes; for mass density: 100 kPa, Vibrating tube method; for self diffusion coefficient: NMR spin-echo technique

CCn1cc[n+](C)c1.CS(=O)(=O)[O-] [1-ethyl-3-methylimidazolium methanesulfonate]
Conditions	electrical conductivity	mass density [kg/m3]	self diffusion coefficient [m2/s]
273.15 K	0.0413 S/m	–	–
278.15 K	0.0656 S/m	1256.19	–
280.65 K	–	1254.4	–
283.15 K	0.0988 S/m	1252.62	–
285.65 K	–	1250.84	–
288.15 K	0.142 S/m	1249.07	–
293.15 K	0.197 S/m	1245.55	–
294 K	–	–	7.63e-12
296.58 K	–	–	9e-12
296.62 K	–	–	9.07e-12
298.15 K	0.265 S/m and 0.259 S/m	1242.06	–
298.98 K	–	–	1.02e-11
299.01 K	–	–	1.03e-11
300.65 K	0.298 S/m	–	–
301.63 K	–	–	1.23e-11
301.77 K	–	–	1.24e-11
303.15 K	0.346 S/m and 0.34 S/m	1238.7	–
304 K	–	–	1.35e-11
304.01 K	–	–	1.34e-11
305.65 K	0.386 S/m	–	–
306.53 K	–	–	1.52e-11
306.58 K	–	–	1.55e-11
308.15 K	0.435 S/m	–	–
310.65 K	0.488 S/m	–	–
313.15 K	0.553 S/m	1231.94	–
313.69 K	–	–	2.21e-11
313.74 K	–	–	2.21e-11
323.15 K	0.821 S/m	1225.21	–
323.7 K	–	–	3.42e-11
323.73 K	–	–	3.43e-11
333.15 K	1.15 S/m	1218.52	–
333.42 K	–	–	5.06e-11
333.52 K	–	–	5.07e-11
343.15 K	1.55 S/m	1211.87	–
343.66 K	–	–	7.13e-11
343.73 K	–	–	7.12e-11
353.15 K	1.99 S/m	1205.26	–
353.4 K	–	–	9.71e-11
353.61 K	–	–	9.7e-11
363.15 K	–	1198.74	–

viscosity
Conditions	Concentric cylinders viscometry	Falling or rolling sphere viscometry
273.15 K	1250.4 mPa·s	–
278.15 K	749.3 mPa·s	–
283.15 K	475.8 mPa·s	472.2 mPa·s and 472.4 mPa·s
285.65 K	–	379 mPa·s
288.15 K	317.1 mPa·s	314.8 mPa·s and 315.7 mPa·s
293.15 K	219.7 mPa·s and 220.2 mPa·s and 220 mPa·s	218.9 mPa·s and 219.3 mPa·s
296.15 K	–	181.5 mPa·s and 179.5 mPa·s and 179.8 mPa·s
298.15 K	158.2 mPa·s	159.8 mPa·s and 160.6 mPa·s
300.15 K	–	138.8 mPa·s [middle of 4 runs]
303.15 K	115.6 mPa·s	116.3 mPa·s
305.65 K	–	101.8 mPa·s and 102 mPa·s
308.15 K	–	89.34 mPa·s and 89.37 mPa·s
313.15 K	66.71 mPa·s	69.08 mPa·s and 69.13 mPa·s and 69.74 mPa·s
323.15 K	43.42 mPa·s	44.52 mPa·s and 44.54 mPa·s
333.15 K	30.27 mPa·s	30.49 mPa·s and 30.68 mPa·s
343.15 K	22.11 mPa·s	21.93 mPa·s and 21.98 mPa·s
353.15 K	16.66 mPa·s	16.42 mPa·s and 16.46 mPa·s
363.15 K	12.94 mPa·s	12.73 mPa·s and 12.81 mPa·s

CCn1cc[n+](C)c1.N#C[B-](C#N)(C#N)C#N [1-ethyl-3-methylimidazolium tetracyanoborate]
Falling or rolling sphere viscometry
Conditions	viscosity
263.15 K	111.3 mPa·s
264.05 K	108.4 mPa·s
265.65 K	96.35 mPa·s and 96.52 mPa·s
268.15 K	81 mPa·s [middle of 6 runs]
273.15 K	58.91 mPa·s and 58.87 mPa·s and 60.07 mPa·s
278.15 K	44.77 mPa·s
283.15 K	34.55 mPa·s and 34.65 mPa·s and 34.73 mPa·s
288.15 K	27.4 mPa·s and 27.3 mPa·s and 27.14 mPa·s
293.15 K	22.35 mPa·s [middle of 6 runs]
296.15 K	19.62 mPa·s [middle of 4 runs]
298.15 K	18.51 mPa·s [middle of 4 runs]
300.15 K	17.16 mPa·s and 16.93 mPa·s
303.15 K	15.47 mPa·s and 15.64 mPa·s and 15.62 mPa·s
313.15 K	11.25 mPa·s [middle of 5 runs]
323.15 K	8.531 mPa·s and 8.521 mPa·s and 8.518 mPa·s
333.15 K	6.68 mPa·s
338.15 K	5.992 mPa·s and 6.022 mPa·s
343.15 K	5.399 mPa·s and 5.4 mPa·s and 5.395 mPa·s
348.15 K	4.921 mPa·s and 4.92 mPa·s
353.15 K	4.458 mPa·s and 4.455 mPa·s and 4.454 mPa·s

Conditions	mass density [kg/m3]
273.15 K	1056.29
283.15 K	1048.19
293.15 K	1040.2
298.15 K	1036.25
303.15 K	1032.31
313.15 K	1024.52
323.15 K	1016.81
333.15 K	1009.19
343.15 K	1001.66
353.15 K	994.2
363.15 K	986.83

CCn1cc[n+](C)c1.O=S(=O)([O-])C(F)(F)F [1-ethyl-3-methylimidazolium trifluoromethanesulfonate]
Falling or rolling sphere viscometry
Conditions	viscosity
268.15 K	172.2 mPa·s and 172.4 mPa·s
273.15 K	130.7 mPa·s and 130.6 mPa·s
278.15 K	102.3 mPa·s and 102 mPa·s
283.15 K	80.26 mPa·s and 80.24 mPa·s
293.15 K	52.45 mPa·s
298.15 K	43.54 mPa·s [middle of 4 runs]
300.65 K	39.67 mPa·s and 39.64 mPa·s
303.15 K	36.27 mPa·s
305.65 K	33.3 mPa·s and 33.29 mPa·s
308.15 K	30.75 mPa·s and 30.7 mPa·s
313.15 K	26.21 mPa·s and 26.2 mPa·s
323.15 K	19.57 mPa·s and 19.48 mPa·s
333.15 K	15.02 mPa·s
343.15 K	11.78 mPa·s and 11.73 mPa·s
348.15 K	10.51 mPa·s

Conditions	electrical conductivity	mass density
273.15 K	0.346 S/m	1407.23 kg/m3
278.15 K	0.433 S/m	1402.99 kg/m3
283.15 K	0.534 S/m	1398.75 kg/m3
288.15 K	0.647 S/m	–
293.15 K	0.772 S/m	1390.28 kg/m3 and 1390.27 kg/m3
298.15 K	0.915 S/m and 0.91 S/m	1386.04 kg/m3 and 1386.06 kg/m3
303.15 K	1.06 S/m	1381.85 kg/m3
313.15 K	1.42 S/m	1373.47 kg/m3 and 1373.45 kg/m3
323.15 K	1.82 S/m	1365.14 kg/m3
333.15 K	2.25 S/m	1356.86 kg/m3
343.15 K	2.76 S/m	1348.64 kg/m3
353.15 K	3.29 S/m	1340.46 kg/m3
363.15 K	–	1332.32 kg/m3

CC1COC(=O)O1 (centres undefined) [4-methyl-1,3-dioxolan-2-one]
Conditions	mass density [kg/m3]	self diffusion coefficient
251.94 K	–	1.29e-10 m2/s
251.99 K	–	1.25e-10 m2/s and 1.24e-10 m2/s
262.92 K	–	1.95e-10 m2/s and 1.9e-10 m2/s
262.93 K	–	1.96e-10 m2/s and 1.93e-10 m2/s
273.09 K	–	2.76e-10 m2/s and 2.73e-10 m2/s
273.15 K	1226.25	2.73e-10 m2/s and 2.65e-10 m2/s
278.15 K	1220.9	–
278.27 K	–	3.12e-10 m2/s
278.28 K	–	3.19e-10 m2/s
278.51 K	–	3.19e-10 m2/s
283.15 K	1215.55	–
283.25 K	–	3.7e-10 m2/s and 3.63e-10 m2/s
283.27 K	–	3.7e-10 m2/s and 3.68e-10 m2/s
288.26 K	–	4.06e-10 m2/s and 4.1e-10 m2/s and 4.07e-10 m2/s
293.15 K	1204.89	–
293.21 K	–	4.58e-10 m2/s
293.27 K	–	4.62e-10 m2/s and 4.6e-10 m2/s
298.05 K	–	5.14e-10 m2/s
298.14 K	–	5.02e-10 m2/s and 5.01e-10 m2/s
298.15 K	1199.58	–
298.19 K	–	5.24e-10 m2/s and 5.21e-10 m2/s
298.21 K	–	5.23e-10 m2/s
298.26 K	–	5.24e-10 m2/s
303.15 K	1194.27	–
303.18 K	–	5.99e-10 m2/s and 5.89e-10 m2/s
303.19 K	–	5.98e-10 m2/s and 5.86e-10 m2/s
308.21 K	–	6.71e-10 m2/s and 6.58e-10 m2/s
308.27 K	–	6.74e-10 m2/s and 6.54e-10 m2/s
308.78 K	–	6.55e-10 m2/s
308.86 K	–	6.59e-10 m2/s
313.15 K	1183.67	–
313.39 K	–	7.44e-10 m2/s and 7.43e-10 m2/s
313.41 K	–	7.32e-10 m2/s and 7.46e-10 m2/s
318.26 K	–	8.17e-10 m2/s and 8.06e-10 m2/s
318.4 K	–	8.14e-10 m2/s and 8.18e-10 m2/s
323.15 K	1173.08	–
323.2 K	–	8.97e-10 m2/s and 9.06e-10 m2/s
323.25 K	–	9.05e-10 m2/s and 8.92e-10 m2/s
323.65 K	–	8.96e-10 m2/s and 8.76e-10 m2/s
323.67 K	–	8.78e-10 m2/s and 8.71e-10 m2/s
333.08 K	–	1.05e-09 m2/s
333.13 K	–	1.04e-09 m2/s
333.15 K	1162.5	–
342.8 K	–	1.22e-09 m2/s
342.86 K	–	1.18e-09 m2/s
343.15 K	1151.92	–
352.52 K	–	1.4e-09 m2/s
352.61 K	–	1.42e-09 m2/s
352.68 K	–	1.35e-09 m2/s
353.15 K	1141.33	–
363.15 K	1130.73	–

C[N+](C)(C)CCO.O=S(=O)([N-]S(=O)(=O)C(F)(F)F)C(F)(F)F [choline bis(trifluoromethylsulfonyl)imide]
Conditions	mass density [kg/m3]
313.15 K	1513.41
315.65 K	1511.12
318.15 K	1508.82
323.15 K	1504.27
328.15 K	1499.7
333.15 K	1495.16
338.15 K	1490.66
343.15 K	1486.16
348.15 K	1481.69
353.15 K	1477.22
358.15 K	1472.78
363.15 K	1468.35
